From publication PMC10974084, “Combination of Betulinic Acid Fragments and Carbonic Anhydrase Inhibitors—A New Drug Targeting Approach” (Pharmaceutics, 2024)
Read-outs that look alike come from different tables or passages of the source.

Tests used:
[1] = test system: tumor cell lines (2D and 3D tumor models); experiment: Cytotoxicity summarised across tumor models; assay type: cell-based
Protocol: (§1) The cytotoxicity of the drugs was determined in 2D tumor models using sulforhodamine B (SRB) assays. Treatment started 24 h after seeding the tumor cells in 96-well plates as previously described.
(§2) To determine cytotoxicity in the 3D tumor models, spheroid cytotoxicity assays were performed as previously described. The luciferase-expressing, breast cancer cell lines MDA-MB-231 and Hs578T and derived spheroids were cultivated in RPMI medium (Sigma-Aldrich, Taufkirchen, Germany) containing 10% fetal bovine serum (BioWest, Nuaillé, France) and 10% penicillin/streptomycin (Sigma-Aldrich) at 37 °C/5% CO2 in a humid atmosphere. For generation of single tumor spheroids, tumor cells resuspended in culture medium were seeded into 96-well plates, which were coated before with 0.7% agarose (SeaKem® GTG™ Agarose, Lonza, Basel, Switzerland). After the formation of spheroids (48 h), they were treated with serial dilutions of compounds. Measurements of luciferase activity were performed on day 7, after supplementation with D-luciferin (Perkin Elmer, Rodgau, Germany), on a Tecan Spark microplate reader (Tecan, Männedorf, Switzerland). Generation of dose-response curves and calculation of IC50 values including standard deviations were accomplished using GraphPad Prism8.

[2] = test system: MCF-7 breast cancer cells; experiment: SRB cytotoxicity assay, MCF-7; assay type: cell-based; settings: Homo sapiens, read-out: IC50 MCF-7
Protocol: (§3) All of the compounds were dissolved in dimethyl sulfoxide (DMSO) to achieve a 20 mM stock solution. Cells were seeded in cell culture flasks 24 h before treatment. The treatment was performed for 24 h.
as §1

A375 melanoma cells = experiment: SRB cytotoxicity assay, A375; assay type: cell-based; settings: Homo sapiens, read-out: IC50 A375
Protocol: as §3, §1

MCF-7 cells [3] = experiment: Cell cycle analysis, MCF-7; assay type: cell-based, human; settings: double the IC50 concentration
Protocol: (§4) Cell cycle analyses were performed as previously described.
(§5) Changes in the genetic material and the resulting mutations, which can affect the formation of tumors, usually occur during the proliferation process in the cell. A human cell passes through all four phases of this cell cycle within 20 h, with the set of its chromosomes varying between single and double. During apoptosis, fragmentation of DNA occurs along with an associated decrease in chromosome content. Fixation of cells with ethanol leads to permeabilization of the cell membrane and thus to loss of smaller DNA fragments, so that apoptotic cells contain less than the single set of chromosomes detected by a SubG1 peak. Given the different amounts of DNA in the cells and the proportional binding of propidium iodide to the DNA, the different fluorescence intensities can be used to infer the distribution of cells in the respective phases of the cell cycle.
The MCF-7 breast cancer cell line was used in the experiments. An untreated sample was also included in the cell cycle analysis as a control. The results are depicted in Figure 4.

[4] = molecular target: recombinant human carbonic anhydrase IX (Homo sapiens, UniProt Q16790); experiment: hCA IX esterase assay with p-nitrophenyl acetate; settings: for Ki relative to the unconjugated inhibitors: higher Ki than unconjugated inhibitors
Protocol: In this measurement, the enzymatically catalyzed hydrolysis of p-nitrophenyl acetate to p-nitrophenol was investigated. […] This was followed by measurement of the v-S-characteristics with inhibitor. […] For each run, 2 experimental series (biological replicate) were prepared simultaneously and measured for 10 min at a measurement interval of 8 s, also as a two-fold determination (technical replicate). […] The resulting reaction velocities, calculated from a calibration curve with p-nitrophenole under the same conditions, were plotted against the substrate concentration. The kinetic evaluation for competitive inhibition was then performed with the program GraphPad Prism.

MCF-7 cells [5] = experiment: Annexin V / propidium iodide assay, MCF-7; assay type: cell-based, human; settings: double the IC50 concentration
Protocol: The Annexin V assays were performed as previously described.
Compounds 3, 5, and 9 were used to study cell death mechanisms and cell cycle analysis. A feature that can be used as it is only characteristic of apoptotic but not necrotic cells is Annexin V staining. During apoptosis, in addition to cell shrinkage, chromatin condensation, and the formation of apoptotic bodies, phosphatidylserine, which is originally inside the membrane, is translocated to the outside. There is a rapid change in phospholipid symmetry in the cell membrane, a process occurring so rapidly that the barrier function of the cell membrane is initially still present. The cellular protein Annexin V can bind to the displaced phosphatidylserine in the presence of calcium. To test for the presence of the cell membrane barrier, the non-membrane-permeable dye propidium iodide was added, which intercalates into the DNA. The flow cytometric data were divided into four areas (live cells, early and late apoptotic cells, and necrotic cells). Untreated cells were used as controls. The results are depicted in Figure 3. […] Even after 48 h, no significant difference between compound 3 and 5 was detected (55–60% live cells, 8% early apoptotic cells, 28–36% late apoptotic cells, 0.5–3% necrotic cells). […] Since both compounds are sulfonamides of betulin, the similar results are not surprising.

[6] = test system: A2780 ovarian cancer cells; experiment: SRB cytotoxicity assay, A2780; assay type: cell-based; settings: Homo sapiens, read-out: IC50 A2780
Protocol: as §3, §1

A375 cells = experiment: Cell cycle analysis, A375; assay type: cell-based, human; settings: double the IC50 concentration
Protocol: as §4, §5
In addition, after 48 h of treatment, there was a decrease in the S and M phases for all treatments, which is similar to that noted after 24 h. […] As in the 24 and 48 h tests, there was a decrease in M- and S-phase cells and an increase in G1/G0 phase cells after 72 h compared with the untreated control. Several independent experiments by different groups show similar results with MCF-7 [42, 43, 44]. Due to a lack of DNA fragmentation in MCF-7 cells, the human melanoma cell line A375 was used as a second cell line for comparison (Figure 4d). […] The effect of compound 3 is even more pronounced with an incubation time of 48 or 72 h. An increase in the SubG1 peak was observed from 0.7% in the control to up to 60% after 72 h of treatment.

MDA-MB-231 spheroids = experiment: Spheroid cytotoxicity assay (luciferase), MDA-MB-231; assay type: cell-based, human; settings: read-out: IC50 MDA-MB-231 spheroids
Protocol: as §2, with “The luciferase-expressing, breast cancer cell lines MDA-MB-231 and Hs578T and derived spheroids were cultivated in RPMI medium (Sigma-Aldrich, Taufkirchen, Germany) containing 10% fetal bovine serum (BioWest, Nuaillé, France) and 10% penicillin/streptomycin (Sigma-Aldrich) at 37 °C/5% CO2 in a humid atmosphere.” left out
(§6) Since the tumor cells stably express luciferase, analysis of spheroid growth and response to therapy is accomplished by measurement of bioluminescent signal intensity.

Hs578T spheroids = experiment: Spheroid cytotoxicity assay (luciferase), Hs578T; assay type: cell-based, human; settings: for IC50: read-out: IC50 Hs578T spheroids; for resistance of Hs578T spheroids versus MDA-MB-231 spheroids: difference of spheroid IC50 values
Protocol: as §2, with “The luciferase-expressing, breast cancer cell lines MDA-MB-231 and Hs578T and derived spheroids were cultivated in RPMI medium (Sigma-Aldrich, Taufkirchen, Germany) containing 10% fetal bovine serum (BioWest, Nuaillé, France) and 10% penicillin/streptomycin (Sigma-Aldrich) at 37 °C/5% CO2 in a humid atmosphere.” left out
as §6

[7] = Homo sapiens; SRB assays, A375, MCF-7, A2780; read-out: IC50 values (range over cell lines of Table 1)
[8] = Homo sapiens; read-out: cytotoxicity range in 2D and 3D tumor models
[9] = MCF7, SRB assay, 96 h incubation, mean ± SD
[10] = A-375, SRB assay, 96 h incubation, mean ± SD
[11] = A2780, SRB assay, 96 h incubation, mean ± SD
[12] = Homo sapiens, MDA-MB-231, 168 h, 7 days of treatment, 3 independent experiments
[13] = Homo sapiens, Hs-578T, 168 h, 7 days of treatment, 3 independent experiments
[14] = Homo sapiens, MDA-MB-231, 168 h
[15] = 7 days of treatment, 3 independent experiments

C=C(C)C1CCC2(C(=O)NCCS(N)(=O)=O)CCC3(C)C(CCC4C5(C)CCC(OC(C)=O)C(C)(C)C5CCC43C)C12 (stereo not drawn) [Compound 3, (3β)-28-{[2-(Aminosulfonyl)-ethyl]-amino}28-oxolup-20(29)-en-3-yl Acetate]
IC50 [1, 7]: 6.4 to 11.4 µM
IC50 [1, 8]: 6.4 to 30.1 µM
IC50 [2, 9]: 7.5 ± 0.7 µM
IC50 (A375 melanoma cells; [10]): 6.4 ± 0.7 µM
cells in SubG1 phase (MCF-7 cells [3]; MCF-7, 72 h): 8.1%
Ki [4]: 1040 ± 390 nM
Ki relative to the unconjugated inhibitors [4]: approximately 10 fold
late apoptotic cells (MCF-7 cells [5]; MCF-7, 24 h): 16%
early apoptotic cells (MCF-7 cells [5]; MCF-7, 48 h): 8%
early apoptotic cells (MCF-7 cells [5]; MCF-7, 72 h): 9%
late apoptotic cells (MCF-7 cells [5]; MCF-7, 72 h): 53%
live cells (MCF-7 cells [5]; MCF-7, 72 h): 34%
necrotic cells (MCF-7 cells [5]; MCF-7, 72 h): 4.5%
IC50 [6, 11]: 10.4 ± 0.8 µM
cells in G1/G0 phase (A375 cells; A375, 24 h): 46.9%
cells in M phase (A375 cells; A375, 24 h): 15.8%
cells in S phase (A375 cells; A375, 24 h): 21.2%
cells in SubG1 phase (A375 cells; A375, 24 h): 11.9%
SubG1 peak (A375 cells; A375, 72 h, control 0.7%): up to 60%

C=C(C)C1CCC2(COC(=O)CCC(=O)O)CCC3(C)C(CCC4C5(C)CCC(OC(C)=O)C(C)(C)C5CCC43C)C12 (stereo not drawn) [Compound 4, 4-{[(3beta)-3-(Acetyloxy)-lup-20(29)-en-28-yl]-oxy}-4-oxobutanoic Acid]
IC50 [2, 9]: 9.8 ± 0.6 µM
IC50 (A375 melanoma cells; [10]): 12.1 ± 1.5 µM
melting point: 122 to 125 °C
IC50 [6, 11]: 12.3 ± 3.9 µM

C=C(C)C1CCC2(COC(=O)CCC(=O)NCCS(N)(=O)=O)CCC3(C)C(CCC4C5(C)CCC(OC(C)=O)C(C)(C)C5CCC43C)C12 (stereo not drawn) [Compound 5, (3β)-3-(Acetyloxy)-lup-20(29)-en-28-yl 4-{[2-(aminosulfonyl)-ethyl]amino}-4-oxobutanoate]
IC50 [1, 7]: 6.4 to 11.4 µM
IC50 [1, 8]: 6.4 to 30.1 µM
IC50 [2, 9]: 8.6 ± 0.7 µM
IC50 (MDA-MB-231 spheroids; [12]): 10.3 ± 2.7 µM
IC50 (A375 melanoma cells; [10]): 9.4 ± 0.5 µM
cells in G1/G0 phase (MCF-7 cells [3]; MCF-7, 48 h): 83.9%
cells in M phase (MCF-7 cells [3]; MCF-7, 48 h): 5.8%
cells in S phase (MCF-7 cells [3]; MCF-7, 48 h): 1.8%
cells in SubG1 phase (MCF-7 cells [3]; MCF-7, 48 h): 8.1%
cells in SubG1 phase (MCF-7 cells [3]; MCF-7, 72 h): 12.1%
Ki [4]: 1100 ± 310 nM
Ki relative to the unconjugated inhibitors [4]: approximately 10 fold
IC50 (Hs578T spheroids; [13]): 30.1 ± 0.7 µM
resistance of Hs578T spheroids versus MDA-MB-231 spheroids (Hs578T spheroids): only about three-fold differences
late apoptotic cells (MCF-7 cells [5]; MCF-7, 24 h): 16%
early apoptotic cells (MCF-7 cells [5]; MCF-7, 48 h): 8%
effect on cell viability (Annexin V) (MCF-7 cells [5]; MCF-7, 72 h): comparably strong effect
IC50 [6, 11]: 11.4 ± 1.4 µM

Nc1nnc(S(N)(=O)=O)s1 [Compound 6, 5-Amino-1,3.4-thiadiazole-2-sulfonamide]
IC50 [2, 9]: > 100 µM
IC50 (A375 melanoma cells; [10]): > 100 µM
IC50 [6, 11]: > 100 µM

NS(=O)(=O)c1nnc(NC(=O)CCC(=O)O)s1 [Compound 7, 4 {[5-(Amino sulfonyl)-1,3,4-thiadiazol-2-yl]-amino}-4-oxobutanoic Acid]
IC50 ([2]; MCF7, 96 h): > 100 µM
IC50 (MDA-MB-231 spheroids; [14]): > 100 µM
IC50 (A375 melanoma cells; A-375, 96 h): > 100 µM
IC50 (Hs578T spheroids; Homo sapiens, Hs-578T, 168 h): > 100 µM
IC50 ([6]; A2780, 96 h): > 100 µM

NS(=O)(=O)c1nnc(NC(=O)CCC(=O)NCCOCCO)s1 [Compound 8, N-[5-(Aminosulfonyl)-1,3,4-thiadiazol-2-yl]-N’-[2-(2-hydroxyethoxy)-ethyl]-succinamide]
IC50 [2, 9]: > 100 µM
IC50 (MDA-MB-231 spheroids; [12]): > 100 µM
IC50 (A375 melanoma cells; [10]): > 100 µM
Ki [4]: 146 nM
IC50 (Hs578T spheroids; [13]): > 100 µM
IC50 [6, 11]: > 100 µM

C=C(C)C1CCC2(COC(=O)CCC(=O)Nc3nnc(S(N)(=O)=O)s3)CCC3(C)C(CCC4C5(C)CCC(OC(C)=O)C(C)(C)C5CCC43C)C12 (stereo not drawn) [Compound 9, (3β)-3-(Acetyloxy)-lup-20(29)-en-28-yl-4-{[5-(aminosulfonyl)-1,3,4-thiadiazol-2-yl]-amino}-4-oxobutanoate]
IC50 ([1]; Homo sapiens, read-out: cytotoxicity range in 2D and 3D tumor models): 6.4 to 30.1 µM
IC50 ([2]; MCF7, 96 h): 6.2 ± 0.2 µM
IC50 (MDA-MB-231 spheroids; [14]): 8.1 ± 1.4 µM
IC50 (A375 melanoma cells; A-375, 96 h): 7.2 ± 0.6 µM
cells in SubG1 phase (MCF-7 cells [3]; MCF-7, 72 h): 6.5%
Ki [4]: 1250 ± 250 nM
Ki relative to the unconjugated inhibitors [4]: approximately 10 fold
IC50 (Hs578T spheroids; Homo sapiens, Hs-578T, 168 h): 28.4 ± 0.3 µM
resistance of Hs578T spheroids versus MDA-MB-231 spheroids (Hs578T spheroids): only about three-fold differences
effect on cell survival compared to untreated control (MCF-7 cells [5]; MCF-7, 24 h): no difference
effect on cell viability (Annexin V) (MCF-7 cells [5]; MCF-7, 72 h): comparatively smaller decrease in cell viability
IC50 ([6]; A2780, 96 h): 8.7 ± 2 µM

NS(=O)(=O)c1ccc(NC(=O)Nc2ccc(F)cc2)cc1 [Compound U-104, reference compound]
IC50 (MDA-MB-231 spheroids; [15]): 33.5 ± 7.6 µM
IC50 (Hs578T spheroids; [15]): 83.9 ± 12.4 µM
